Laboratory results as given in patent US20050032124A1, “Identification of genotype-selective agents for treating Huntington's disease” (priority 2003, published 2005).
Values after ≈ are worked out from the molar mass of the structure shown. Where two headings read alike, the source gives them in different places.

Columns and labels:
Experiment in all cases: Calcein AM viability assay, dilution-series retest
Assay type in all cases: cell-based, human
[1] = tested on: BJ-TERT/LT/ST/RAS^V12 tumorigenic cells; details: for IC50: Homo sapiens, 48 h, read-out: IC50, BJ-TERT/LT/ST/Ras^V12; for Tumor Selectivity: IC50 in primary BJ cells divided by IC50 in BJ-TERT/LT/ST/RAS^V12 tumorigenic cells
Description: Described here is work carried out to identify compounds with increased potency or activity in the presence of hTERT, LT, ST, E6, E7 or RAS^V12. […] The primary screen tested (in quadruplicate) the effect of treating tumorigenic BJ-TERT/LT/ST/RAS^V12 engineered tumorigenic cells with each compound for 48 hours at a concentration of 4 μg/mL, corresponding to 10 μM for a compound with a molecular weight of 400, which is the approximate median molecular weight of the libraries. Cell viability was measured using the dye calcein acetoxymethyl ester (calcein AM) (Wang et al., 1993, Hum. Immunol. 3 7, 264-270), which is a non-fluorescent compound that freely diffuses into cells. In live cells, calcein AM is cleaved by intracellular esterases, forming the anionic fluorescent derivative calcein, which cannot diffuse out of live cells. […] The IC50 value (concentration required to inhibit 50% of the calcein AM signal) was calculated for each compound in each cell line (Table 1).
(§1) Calcein acetoxylmethyl ester (AM) is a cell membrane-permeable, non-fluorescent compound that is cleaved by intracellular esterases to form the anionic, cell-impermeable, fluorescent compound calcein. Viable cells are stained by calcein because of the presence of intracellular esterases and because the intact plasma membrane prevents fluorescent calcein from leaking out of cells (Wang et al., 1993, supra). Cells were seeded in 384-well plates using a Zymark Sciclone ALH, treated with each compound in triplicate at 4 μg/mL in the primary screen for two days, washed with phosphate-buffered saline on a Packard Minitrak with a 384-well washer and incubated for four hours with 0.7 μg/mL calcein (Molecular Probes). Total fluorescence intensity in each well was recorded on a Packard Fusion platereader, and converted to a percent inhibition of signal by subtracting the instrument background and dividing by the average signal obtained when cells were not treated with any compound.
(§2) Replica daughter plates were prepared with a Zymark Sciclone ALH and integrated Twister II by diluting stock plates 50 fold in medium lacking serum and pen/strep to obtain a compound concentration in daughter plates of 80 μg/ml with 2% DMSO. Assay plates were prepared by seeding cells in black, clear bottom 384-well plates in columns 1-23 (6000 cells/well in 57 μl) using a syringe bulk dispenser. Columns 3-22 were treated with compounds from a daughter library plate by transferring 3 μl from the daughter library plate using 384-position fixed cannula array. The final compound concentrations in assay plates were thus 4 μg/ml. The assay plates were incubated for 48 hours at 37° C. in humidified incubator containing 5% CO2. Plate processing for the calcein AM viability assay was performed using an integrated Minitrak/Sidetrak robotic system from Packard Bioscience (Perkin Elmer). Assay plates were washed with phosphate buffered saline, and 20 μl of calcein AM (0.7 μg/ml) per well was added. Plates were incubated at room temperature for 4 hours. Fluorescence intensity was determined using a Fusion platereader with filters centered on an excitation of 485 nm and an emission of 535 nm.
(§3) Compounds to be retested were purchased from manufacturers. Stocks were prepared in DMSO at a concentration of 1 mg/ml in 384-well polypropylene plates with a 16-point, two-fold dilution dose curve of each compound in a column, in duplicates. Column 1-2 and 23-24 were left empty for controls. Daughter retest plates were prepared from stock retest plate by diluting 66.6 fold in DMEM in 384-well deep-deep well plates (4.5 μl transfer into 300 μl). Cells were seeded at a density of 6000 per well in 40 μl, and 20 μl was added from a daughter retest plate. The plates were incubated for two days at 37° C. with 5% CO2.

TIP5/TERT cells = details: Homo sapiens, 48 h, read-out: IC50, TIP5-TERT
Description: (§4) In a third series, cell lines derived from independently prepared human TIP5 foreskin fibroblasts created by introducing cDNA constructs encoding hTERT, LT, ST and RASV12 (Lessnick et al., 2002, Cancer Cell 1, 393-401) were used. These cell lines were called, respectively: TIP5/TERT, TIP5/TERT/LT, TIP5/TERT/LT/ST, and TIP5/TERT/LT/ST/RAS^V12. In a fourth series, cell lines derived from TIP5 fibroblasts created by introducing cDNA constructs encoding hTERT, E6, E7, ST and RAS^V12 were used. These cell lines were named, respectively: TIP5/TERT/E6, TIP5/TERT/E6/E7, TIP5/TERT/E6/E7/ST, and TIP5/TERT/E6/E7/ST/RAS^V12. In this series, HPV E6 and E7, which inactivate p53 and RB, respectively, serve a similar function as LT in the previous series. However, by using HPV E6 and E7, Applicants were able to observe the effects of inactivating, separately and independently, p53 and RB. Results of a large-scale screen for compounds that display selective killing of these engineered tumorigenic cell lines are described in the examples that follow.
as §1, §2, §3
(§5) Mean RFU (relative fluorescence units) for untreated cells was calculated by averaging columns 1, 2, and 23 (wells with cells but lacking compounds). […]

TIP5/TERT/E6/E7 cells = details: for IC50: Homo sapiens, 48 h, read-out: IC50, TIP5-TERT/E6E7
Description: as §4, §1, §2, §3, §5

TIP5/TERT/E6/E7/ST cells = details: Homo sapiens, 48 h, read-out: IC50, TIP5-TERT/E6E7 ST
Description: as §4, §1, §2, §3, §5

TIP5/TERT/LT cells = details: Homo sapiens, 48 h, read-out: IC50, TIP5 TERT/LT
Description: as §4, §1, §2, §3, §5

[2] = tested on: TIP5/TERT/LT/ST/RAS^V12 cells; details: Homo sapiens, 48 h, read-out: IC50, TIP5 TERT/LT/ST/Ras^V12
Description: as §4, §1, §2, §3, §5

[3] = BJ-TERT/LT/ST/Ras^V12 cells, 16-point two-fold dilution, two days
[4] = TIP5-TERT cells, 16-point two-fold dilution, two days
[5] = TIP5-TERT/E6E7 cells, 16-point two-fold dilution, two days
[6] = TIP5-TERT/E6E7/ST cells, 16-point two-fold dilution, two days
[7] = TIP5 TERT/LT cells, 16-point two-fold dilution, two days
[8] = TIP5 TERT/LT/ST/Ras^V12 cells, 16-point two-fold dilution, two days

## O=C1c2c(O)ccc(O)c2C(=O)c2c(NCCNCCO)ccc(NCCNCCO)c21 [Mitoxantrone]
[1]; [3]
  IC50: 0.312 µg/mL (≈ 0.702 µM)
[1]
  Tumor Selectivity: 18
TIP5/TERT cells; [4]
  IC50: > 5 µg/mL
TIP5/TERT/E6/E7 cells; [5]
  IC50: 0.625 µg/mL (≈ 1.41 µM)
TIP5/TERT/E6/E7/ST cells; [6]
  IC50: 0.625 µg/mL (≈ 1.41 µM)
TIP5/TERT/LT cells; [7]
  IC50: 1.25 µg/mL (≈ 2.81 µM)
[2]; [8]
  IC50: 1.25 µg/mL (≈ 2.81 µM)

## CCOc1ccccc1-n1c(C(C)N2CCN(C(=O)COc3ccc(Cl)cc3)CC2)nc2ccccc2c1=O (stereo not drawn) [Erastin]
[1]; [3]
  IC50: 1.25 µg/mL (≈ 2.28 µM)
[1]
  Tumor Selectivity: >8
TIP5/TERT cells; [4]
  IC50: > 5 µg/mL
TIP5/TERT/E6/E7 cells; [5]
  IC50: > 5 µg/mL
TIP5/TERT/E6/E7/ST cells; [6]
  IC50: > 5 µg/mL
TIP5/TERT/LT cells; [7]
  IC50: > 5 µg/mL
[2]; [8]
  IC50: 2.5 µg/mL (≈ 4.57 µM)

## CC[C@@]1(O)C(=O)OCc2c1cc1n(c2=O)Cc2cc3ccccc3nc2-1 [Camptothecin]
[1]; [3]
  IC50: 0.0195 µg/mL (≈ 0.056 µM)
[1]
  Tumor Selectivity: >512
TIP5/TERT cells; [4]
  IC50: > 5 µg/mL
TIP5/TERT/E6/E7 cells
  activity in cells lacking RB function (via expression of E7): partially active
TIP5/TERT/E6/E7 cells; [5]
  IC50: 0.625 µg/mL (≈ 1.79 µM)
TIP5/TERT/E6/E7/ST cells; [6]
  IC50: 0.156 µg/mL (≈ 0.448 µM)
TIP5/TERT/LT cells; [7]
  IC50: > 5 µg/mL
[2]; [8]
  IC50: 0.156 µg/mL (≈ 0.448 µM)

## COc1ccc(C[C@H]2C(=O)N[C@@H](C)C(=O)N(C)[C@@H]3C(=O)N(C)[C@@H](Cc4ccc(O)c(c4)Oc4ccc(cc4)[C@@H]3O)C(=O)N[C@H](C)C(=O)N[C@@H](C)C(=O)N2C)cc1 [Bouvardin]
[1]; [3]
  IC50: 0.078 µg/mL (≈ 0.101 µM)
[1]
  Tumor Selectivity: 4
TIP5/TERT cells
  IC50: > 5 µg/mL
TIP5/TERT/E6/E7 cells
  IC50: 0.039 µg/mL (≈ 0.0505 µM)
TIP5/TERT/E6/E7/ST cells
  IC50: 0.039 µg/mL (≈ 0.0505 µM)
TIP5/TERT/LT cells
  IC50: 0.312 µg/mL (≈ 0.404 µM)
[2]
  IC50: 0.039 µg/mL (≈ 0.0505 µM)

## CS[C@H]1SC[C@H]2C(=O)N(C)[C@@H](C(C)C)C(=O)OC[C@@H](NC(=O)c3cnc4ccccc4n3)C(=O)N[C@@H](C)C(=O)N(C)[C@@H]1C(=O)N(C)[C@@H](C(C)C)C(=O)OC[C@@H](NC(=O)c1cnc3ccccc3n1)C(=O)N[C@@H](C)C(=O)N2C [Echinomycin]
[1]
  IC50: 0.0012 µg/mL (≈ 0.00109 µM)
  Tumor Selectivity: >8333
TIP5/TERT cells
  IC50: > 5 µg/mL
TIP5/TERT/E6/E7 cells
  IC50: 0.048 µg/mL (≈ 0.0436 µM)
TIP5/TERT/E6/E7/ST cells
  IC50: 0.048 µg/mL (≈ 0.0436 µM)
TIP5/TERT/LT cells
  IC50: 5 µg/mL (≈ 4.54 µM)
[2]
  IC50: 0.0024 µg/mL (≈ 0.00218 µM)

## COc1cccc2c1C(=O)c1c(O)c3c(c(O)c1C2=O)C[C@@](O)(C(C)=O)C[C@@H]3O[C@H]1C[C@H](N)[C@H](O)[C@H](C)O1 [Daunorubicin]
[1]; [3]
  IC50: 0.312 µg/mL (≈ 0.591 µM)
[1]
  Tumor Selectivity: 16
TIP5/TERT cells
  IC50: > 5 µg/mL
TIP5/TERT/E6/E7 cells
  IC50: 0.625 µg/mL (≈ 1.18 µM)
TIP5/TERT/E6/E7/ST cells
  IC50: 0.625 µg/mL (≈ 1.18 µM)
TIP5/TERT/LT cells
  IC50: 1.25 µg/mL (≈ 2.37 µM)
[2]
  IC50: 0.825 µg/mL (≈ 1.56 µM)

## COc1cccc2c1C(=O)c1c(O)c3c(c(O)c1C2=O)C[C@@](O)(C(=O)CO)C[C@@H]3O[C@H]1C[C@H](N)[C@H](O)[C@H](C)O1 [Doxorubicin]
[1]; [3]
  IC50: 1.25 µg/mL (≈ 2.3 µM)
[1]
  Tumor Selectivity: >8
TIP5/TERT cells; [4]
  IC50: > 5 µg/mL
TIP5/TERT/E6/E7 cells; [5]
  IC50: 1.25 µg/mL (≈ 2.3 µM)
TIP5/TERT/E6/E7/ST cells; [6]
  IC50: 1.25 µg/mL (≈ 2.3 µM)
TIP5/TERT/LT cells; [7]
  IC50: 1.25 µg/mL (≈ 2.3 µM)
[2]; [8]
  IC50: 0.625 µg/mL (≈ 1.15 µM)

## NC(=O)c1cn([C@@H]2O[C@H](CO)[C@@H](O)[C@H]2O)c2ncnc(N)c12 [Sangivamycin]
[1]; [3]
  IC50: 0.078 µg/mL (≈ 0.252 µM)
[1]
  Tumor Selectivity: 4
TIP5/TERT cells
  IC50: 1.25 µg/mL (≈ 4.04 µM)
TIP5/TERT/E6/E7 cells
  IC50: 0.078 µg/mL (≈ 0.252 µM)
TIP5/TERT/E6/E7/ST cells
  IC50: 0.078 µg/mL (≈ 0.252 µM)
TIP5/TERT/LT cells
  IC50: 0.312 µg/mL (≈ 1.01 µM)
[2]
  IC50: 0.078 µg/mL (≈ 0.252 µM)
